System: patients with ALK-positive NSCLC
Assay: Phase 1 safety assessment (TRAEs by CTCAE 4.03, DLT, MTD, RP2D)
Assay type: in vivo, human
Protocol: In the dose-escalation phase, the dose was escalated sequentially from a low to a high level with a 3 + 3 dose-escalation scheme based on the modified Fibonacci method. The starting dose for conteltinib was 50 mg orally quaque die (QD). Dose escalation proceeded to the next six cohorts of 100 mg, 200 mg, 300 mg, 450 mg, 600 mg, and 800 mg QD. For each dose, there was a PK lead-in phase where a single dose was given 7 days before cycle 1 day 1. Then, each dose was taken continuously in a 28-day cycle. The first cycle was for dose-limiting toxicity (DLT) investigation. When one of three patients experienced a DLT in a dose cohort, three additional patients were enrolled in the same dose cohort to assess the dose level in a total of six patients. All patients received conteltinib until disease progression, unacceptable toxicity, or withdrawal of consent. Patients received follow-up safety assessments for 30 days (±7 days) after the last conteltinib dose.
In the dose-expansion phase, each dose was taken continuously in a 28-day cycle. At the end of each cycle, a safety evaluation was conducted. If patients met the criteria to enter the next cycle, treatment with conteltinib was continued for subsequent cycles. All patients received conteltinib until disease progression, unacceptable toxicity, or withdrawal of consent. Patients received follow-up safety assessments for 30 days (±7 days) after the last dose of conteltinib.
The safety of conteltinib was assessed in safety set (SS) which was based on the National Cancer Institute Common Terminology Criteria for Adverse Events (CTCAE) version 4.03, laboratory tests, vital signs, ECG, and clinical observations. […] Adverse events (AEs) were judged to be treatment-related or not by investigators.
DLTs were AEs occurring in the first cycle of treatment (28 days) that were attributed to conteltinib, and the criteria were grade 4 neutropenia lasting ≥ 7 days, febrile neutropenia, grade 3 thrombocytopenia, grade 3 non-hematologic toxicity, and any conteltinib-related toxicity resulting in treatment delay > 2 weeks or discontinuation of conteltinib treatment at the assigned dose level. Besides, grade 3 nausea, vomiting, or diarrhea for ≥ 3 days or grade 4 nausea, vomiting, or diarrhea of any duration was considered as a DLT. The MTD was defined as the dose of conteltinib that would be closest to but not higher than a 33% probability of a DLT.

COc1cc(N2CCC(N3CCN(C)CC3)CC2)ccc1Nc1nc2c(c(Nc3ccccc3S(=O)(=O)NC(C)C)n1)CCN2 [Conteltinib]
1 (33.3) n (%): TRAE AST elevated (300 mg QD (n=3), Grade 1–2) | TRAE Hypercholesterolemia (300 mg QD (n=3), Grade 1–2) | TRAE Hyperglycemia (300 mg QD (n=3), Grade 1–2) | TRAE Hypertriglyceridemia (300 mg QD (n=3), Grade 1–2) | TRAE Hypoalbuminemia (300 mg QD (n=3), Grade 1–2) | TRAE Nausea (300 mg QD (n=3), Grade 1–2) | TRAE Serum creatinine elevated (300 mg QD (n=3), Grade 1–2) | TRAE Vomiting (300 mg QD (n=3), Grade 1–2)
0 (0.0) n (%): TRAE Abdominal pain (200 mg QD (n=3), Grade ≥ 3) | TRAE Abdominal pain upper (200 mg QD (n=3), Grade ≥ 3) | TRAE Appetite decreased (200 mg QD (n=3), Grade ≥ 3) | TRAE Conjugated bilirubin elevated (200 mg QD (n=3), Grade ≥ 3) | TRAE Diarrhea (200 mg QD (n=3), Grade ≥ 3) | TRAE Hypercholesterolemia (200 mg QD (n=3), Grade ≥ 3) | TRAE Hyperglycemia (200 mg QD (n=3), Grade ≥ 3) | TRAE Hypertriglyceridemia (200 mg QD (n=3), Grade ≥ 3) | TRAE Hyperuricemia (200 mg QD (n=3), Grade ≥ 3) | TRAE Hypoalbuminemia (200 mg QD (n=3), Grade ≥ 3) | TRAE Nausea (200 mg QD (n=3), Grade ≥ 3) | TRAE Proteinuria (200 mg QD (n=3), Grade ≥ 3) | TRAE Serum creatinine elevated (200 mg QD (n=3), Grade ≥ 3) | TRAE Vomiting (200 mg QD (n=3), Grade ≥ 3) | TRAE Weight loss (200 mg QD (n=3), Grade ≥ 3) | TRAE γ-GGT elevated (200 mg QD (n=3), Grade ≥ 3) | TRAE Hypercholesterolemia (300 mg BID (n=12), Grade 1–2) | TRAE Hyperglycemia (300 mg BID (n=12), Grade 1–2) | TRAE ALT elevated (300 mg BID (n=12), Grade ≥ 3) | TRAE AST elevated (300 mg BID (n=12), Grade ≥ 3) | TRAE Abdominal pain (300 mg BID (n=12), Grade ≥ 3) | TRAE Abdominal pain upper (300 mg BID (n=12), Grade ≥ 3) | TRAE Appetite decreased (300 mg BID (n=12), Grade ≥ 3) | TRAE Diarrhea (300 mg BID (n=12), Grade ≥ 3) | TRAE Hypercholesterolemia (300 mg BID (n=12), Grade ≥ 3) | TRAE Hyperglycemia (300 mg BID (n=12), Grade ≥ 3) | TRAE Hypertriglyceridemia (300 mg BID (n=12), Grade ≥ 3) | TRAE Hyperuricemia (300 mg BID (n=12), Grade ≥ 3) | TRAE Hypoalbuminemia (300 mg BID (n=12), Grade ≥ 3) | TRAE Nausea (300 mg BID (n=12), Grade ≥ 3) | TRAE Proteinuria (300 mg BID (n=12), Grade ≥ 3) | TRAE Serum creatinine elevated (300 mg BID (n=12), Grade ≥ 3) | TRAE Vomiting (300 mg BID (n=12), Grade ≥ 3) | TRAE Weight loss (300 mg BID (n=12), Grade ≥ 3) | TRAE Abdominal pain (300 mg QD (n=3), Grade 1–2) | TRAE Abdominal pain upper (300 mg QD (n=3), Grade 1–2) | TRAE Appetite decreased (300 mg QD (n=3), Grade 1–2) | TRAE Conjugated bilirubin elevated (300 mg QD (n=3), Grade 1–2) | TRAE Hyperuricemia (300 mg QD (n=3), Grade 1–2) | TRAE Proteinuria (300 mg QD (n=3), Grade 1–2) | TRAE γ-GGT elevated (300 mg QD (n=3), Grade 1–2) | Patients with any TRAE (300 mg QD (n=3), Grade ≥ 3) | TRAE ALT elevated (300 mg QD (n=3), Grade ≥ 3) | TRAE AST elevated (300 mg QD (n=3), Grade ≥ 3) | TRAE Abdominal pain (300 mg QD (n=3), Grade ≥ 3) | TRAE Abdominal pain upper (300 mg QD (n=3), Grade ≥ 3) | TRAE Appetite decreased (300 mg QD (n=3), Grade ≥ 3) | TRAE Conjugated bilirubin elevated (300 mg QD (n=3), Grade ≥ 3) | TRAE Diarrhea (300 mg QD (n=3), Grade ≥ 3) | TRAE Hypercholesterolemia (300 mg QD (n=3), Grade ≥ 3) | TRAE Hyperglycemia (300 mg QD (n=3), Grade ≥ 3) | TRAE Hypertriglyceridemia (300 mg QD (n=3), Grade ≥ 3) | TRAE Hyperuricemia (300 mg QD (n=3), Grade ≥ 3) | TRAE Hypoalbuminemia (300 mg QD (n=3), Grade ≥ 3) | TRAE Nausea (300 mg QD (n=3), Grade ≥ 3) | TRAE Proteinuria (300 mg QD (n=3), Grade ≥ 3) | TRAE Serum creatinine elevated (300 mg QD (n=3), Grade ≥ 3) | TRAE Vomiting (300 mg QD (n=3), Grade ≥ 3) | TRAE Weight loss (300 mg QD (n=3), Grade ≥ 3) | TRAE γ-GGT elevated (300 mg QD (n=3), Grade ≥ 3)
2 (16.7) n (%): TRAE Abdominal pain (300 mg BID (n=12), Grade 1–2) | TRAE Appetite decreased (300 mg BID (n=12), Grade 1–2) | TRAE Hyperuricemia (300 mg BID (n=12), Grade 1–2) | TRAE Vomiting (300 mg BID (n=12), Grade 1–2) | TRAE Weight loss (300 mg BID (n=12), Grade 1–2)
4 (33.3) n (%): TRAE Hypoalbuminemia (300 mg BID (n=12), Grade 1–2) | TRAE Nausea (300 mg BID (n=12), Grade 1–2)
14 (100) n (%): Patients with any TRAE (450 mg QD (n=14), Grade 1–2)
13 (92.9) n (%): TRAE Diarrhea (450 mg QD (n=14), Grade 1–2)
1 (8.3) n (%): TRAE Conjugated bilirubin elevated (300 mg BID (n=12), Grade 1–2) | TRAE Hypertriglyceridemia (300 mg BID (n=12), Grade 1–2) | Patients with any TRAE (300 mg BID (n=12), Grade ≥ 3) | TRAE Conjugated bilirubin elevated (300 mg BID (n=12), Grade ≥ 3) | TRAE γ-GGT elevated (300 mg BID (n=12), Grade ≥ 3)
2 (14.3) n (%): TRAE Appetite decreased (450 mg QD (n=14), Grade 1–2) | TRAE Conjugated bilirubin elevated (450 mg QD (n=14), Grade 1–2)
9 (64.3) n (%): TRAE AST elevated (450 mg QD (n=14), Grade 1–2)
5 (41.7) n (%): TRAE Serum creatinine elevated (300 mg BID (n=12), Grade 1–2)
5 (35.7) n (%): TRAE Abdominal pain (450 mg QD (n=14), Grade 1–2) | TRAE Abdominal pain upper (450 mg QD (n=14), Grade 1–2)
10 (83.3) n (%): Patients with any TRAE (300 mg BID (n=12), Grade 1–2)
8 (66.7) n (%): TRAE Diarrhea (300 mg BID (n=12), Grade 1–2)
3 (100) n (%): Patients with any TRAE (300 mg QD (n=3), Grade 1–2) | TRAE Diarrhea (300 mg QD (n=3), Grade 1–2) | TRAE Weight loss (300 mg QD (n=3), Grade 1–2)
10 (71.4) n (%): TRAE ALT elevated (450 mg QD (n=14), Grade 1–2)
3 (25.0) n (%): TRAE ALT elevated (300 mg BID (n=12), Grade 1–2) | TRAE AST elevated (300 mg BID (n=12), Grade 1–2) | TRAE Abdominal pain upper (300 mg BID (n=12), Grade 1–2) | TRAE Proteinuria (300 mg BID (n=12), Grade 1–2) | TRAE γ-GGT elevated (300 mg BID (n=12), Grade 1–2)

Reference: PMC9694544, “Conteltinib (CT-707) in patients with advanced ALK-positive non-small cell lung cancer: a multicenter, open-label, first-in-human phase 1 study” (BMC Medicine, 2022)
